Source: paper PMC4428687 (FEMS yeast research, 2013)

Experiments:
CaPma1p [1] = target: CaPma1p (Candida albicans, UniProt A0A1D8PJ01, A570P/A595V/D557N/D559E/I574L/N594R/S564G/S601N/V186I/V531I); experiment: biochemical
CaPma1p [2] = target: CaPma1p (Candida albicans, UniProt A0A1D8PJ01, A570P/A595V/I574L/N594R/S601N); experiment: biochemical
CaPma1p [3] = target: CaPma1p (Candida albicans, UniProt A0A1D8PJ01); experiment: ATPase activity; type: biochemical
[4] = target: CaPma1p-ScPma2p chimera expressed in Saccharomyces cerevisiae (C. albicans SC5314 (with residues of S. cerevisiae Pma2p)) (UniProt P28877); experiment: SEC

## [O]=[V]([OH])([OH])[OH] [vanadate]
CaPma1p [1]
  IC50: 2 to 9 µM
CaPma1p [2]
  IC50: 2 to 9 µM
CaPma1p [3]
  IC50: 2 to 9 µM

## CaPma1p-ScPma2p chimera expressed in Saccharomyces cerevisiae (from UniProt P28877 1-895) (enzyme)
[4]
  stoichiometry N: > 4
